Entries after “also recorded” stand apart in the source; their conditions may differ.
Legend:
[1] = Humidity exposure / comparative hygroscopicity study of solid forms (weight change, appearance, XRPD); assay type: physicochemical
[2] = as above; assay type: physicochemical; conditions: for XRPD form: 48 hrs; for XRPD (final form): 18-23° C., 48 h
Experimental: X-Ray powder diffraction (XRPD) analysis was carried out using a Bruker D2 Phaser powder diffractometer employing a LynxEye detector. The samples underwent minimum preparation but, if necessary they were milled in a pestle and mortar before acquisition.
The samples were continuously spun during data collection and scanned using a step size of 0.02° two theta (2θ) between the range of 4°-40° two theta and a count time of 10 seconds per step. Data was processed using Bruker Diffrac. Suite.
Samples of Form D were placed in humidity chambers at 45%, 60% and 75% RH at 18-23° C. and their weight changes were monitored at intervals up to 48 h.
Accurately weighed samples of Form D were placed in humidity chambers at 45%, 60% and 75% R.H. and monitored for weight changes over 48 h.

[3] = Form inter-conversion by stirring in TBME/ethanol/water (20/5/1, v/v/v); assay type: physicochemical; conditions: TBME/ethanol/water (20/5/1, v/v/v) at 18-23° C. for 4 days
Experimental: A mixture of Forms A, B, C, and D (present in equal amounts) of Compound 1 was stirred in TBME/ethanol/water (20/5/1, v/v/v) at 18-23° C. for 4 days.
A reaction vessel was charged with a mixture of Forms A-D of Compound 1 (25 mg, 1.0 wt.). A solution of TBME/EtOH/water (20/5/1, 10 vol) was added, and was stirred at 18-23° C. for 4 days. The solid was isolated by filtration, washed with recycled mother liquors, and dried under vacuum under a N2 atmosphere.
A reaction vessel was charged with Form A of Compound 1 (25 mg, 1.0 wt.). A solution of TBME/EtOH/water (20/5/1, 10 vol) was added, and was stirred at 18-23° C. for 4 days. The solid was isolated by filtration, washed with recycled mother liquors, and dried under vacuum under a N2 atmosphere.
A reaction vessel was charged with Form B of Compound 1 (25 mg, 1.0 wt.). A solution of TBME/EtOH/water (20/5/1, 10 vol) was added, and was stirred at 18-23° C. for 4 days. The solid was isolated by filtration, washed with recycled mother liquors, and dried under vacuum under a N2 atmosphere.
A reaction vessel was charged with Form C of Compound 1 (25 mg, 1.0 wt.). A solution of TBME/EtOH/water (20/5/1, 10 vol) was added, and was stirred at 18-23° C. for 4 days. The solid was isolated by filtration, washed with recycled mother liquors, and dried under vacuum under a N2 atmosphere.
A reaction vessel was charged with Form D of Compound 1 (25 mg, 1.0 wt.). A solution of TBME/EtOH/water (20/5/1, 10 vol) was added, and was stirred at 18-23° C. for 4 days. The solid was isolated by filtration, washed with recycled mother liquors, and dried under vacuum under a N2 atmosphere.

[4] = Drying of Form A under vacuum at elevated temperature (weight loss, XRPD, HPLC/1H NMR); assay type: physicochemical
Experimental: Form A (1.0 g) was dried at 60° C. under reduced pressure for 24 h. During this time the sample decreased in weight by −7.3% w/w.
A sample of Form A was dried for 48 h under vacuum at 60° C. and reweighed. The material decreased in weight by 9.30% w/w.
The reactions conditions were repeated on a 1.0 g scale: a sample of Form A was dried for 24 hr under vacuum at 60° C. and reweighed. The material decreased in weight by 7.30% w/w. […] The material was allowed to cool to ambient temperature under vacuum before releasing the vacuum with nitrogen and transferring the Form D into a poly-tub under nitrogen.

[5] = Human pharmacokinetics: open-label, randomized relative bioavailability study of Compounds 1 and 3 (plasma total, unbound and iron bound Compound 2); assay type: in vivo; conditions: healthy adults, oral capsules; plasma Compound 2; relative to Compound 3, see Table 14
Experimental: The purpose of this Example is to characterize the pharmacokinetic profiles of Compound 1 (disodium salt) and its magnesium hydroxide salt counterpart, Compound 3:
This human study is part of an open-label, randomized, single dose, 3-period, relative bioavailability study in up to 28 healthy adults 18-65 years of age inclusive, investigating the pharmacokinetics, safety, and tolerability of Compounds 1 and 3. In this study, each study compound is administered as a single dose of 36.2 mg/kg/day or 18.1 mg/kg/day, respectively (as free acid), and as 2 doses of 36.2 mg/kg or 18.1 mg/kg, respectively (as free acid), given 12 hours apart. Table 13 provides dosages relative to free acid content.
The magnesium hydroxide salt (Compound 3) is administered as oral capsules in the following strengths: 50, 100, 200, 375 and 500 mg. The disodium salt (Compound 1) is administered as oral capsules in the following strengths: 54.1, 272.8 and 408.7 mg.
There will be 3 treatment periods in this study and 4 possible treatments. […]
Actual pharmacokinetic blood sample collection times versus time of dosing will be monitored. […]

[6] = 75% relative humidity (RH) at 15-25° C. for 1-2 days

COCCOCCOCCOc1cccc(C2=N[C@@](C)(C(=O)[O-])CS2)c1[O-].[Na+].[Na+] [Form D, (S)-2-(2-hydroxy-3-(2-(2-(2-methoxyethoxy)ethoxy)ethoxy)phenyl)-4-methyl-4,5-dihydrothiazole-4-carboxylate disodium Form D polymorph]
XRPD (final form) ([1]; 43% RH, 18-23° C., 48 h): Form A
XRPD form ([2]; 45% R.H.): Form A
XRPD form ([2]; 60% R.H.): Form A
XRPD (final form) ([2]; 60% RH): Form A
XRPD form ([2]; 75% R.H.): Form A
XRPD (final form) ([2]; 75% RH): Form A
Form after exposure to humidity ([2]; exposed to ≧43% relative humidity): reverts to Form A
Output form after stirring in solvent [3]: converted into Form A

COCCOCCOCCOc1cccc(C2=N[C@@](C)(C(=O)[O-])CS2)c1[O-].[Na+].[Na+] [Form A, (S)-2-(2-hydroxy-3-(2-(2-(2-methoxyethoxy)ethoxy)ethoxy)phenyl)-4-methyl-4,5-dihydrothiazole-4-carboxylate disodium Form A polymorph]
Form after drying ([4]; 40° C. under vacuum for 48 h): partial transformation of Form A to Form D
Form after drying ([4]; 60° C. under vacuum for 24 hours): converted to Form D; also recorded: converted into Form D
Chemical stability on drying (HPLC and 1H NMR) ([4]; 60° C. under vacuum for 48 h): decomposition had not occurred
Decrease in weight on drying ([4]; 60° C. under vacuum for 48 h): 9.30 % w/w
Form after drying (XRPD) ([4]; 60° C. under vacuum for 48 h): Form D
Form after exposure to humidity ([1]; 43% RH at 50° C. for 5 days): remained as Form A
Form after exposure to humidity [1, 6]: remained as Form A
Output form after stirring in solvent [3]: remained Form A

COCCOCCOCCOc1cccc(C2=N[C@@](C)(C(=O)[O-])CS2)c1[O-].[Na+].[Na+] [Compound 1, (S)-2-(2-hydroxy-3-(2-(2-(2-methoxyethoxy)ethoxy)ethoxy)phenyl)-4-methyl-4,5-dihydrothiazole-4-carboxylate disodium]
AUC higher than Compound 3 [5]: ~22%
Cmax higher than Compound 3 [5]: ~35%

COCCOCCOCCOc1cccc(C2=N[C@@](C)(C(=O)[O-])CS2)c1[O-].[Na+].[Na+] [Form B, (S)-2-(2-hydroxy-3-(2-(2-(2-methoxyethoxy)ethoxy)ethoxy)phenyl)-4-methyl-4,5-dihydrothiazole-4-carboxylate disodium Form B polymorph]
Form after exposure to humidity [1, 6]: re-generated Form A
Output form after stirring in solvent [3]: converted into Form A

COCCOCCOCCOc1cccc(C2=N[C@@](C)(C(=O)[O-])CS2)c1[O-].[Na+].[Na+] [Form C, (S)-2-(2-hydroxy-3-(2-(2-(2-methoxyethoxy)ethoxy)ethoxy)phenyl)-4-methyl-4,5-dihydrothiazole-4-carboxylate disodium Form C polymorph]
Form after exposure to humidity ([1]; 75% RH at 15-25° C. for 22 h): re-generated Form A
Weight gain on exposure to humidity ([1]; 75% RH at 15-25° C. for 22 h): 18.5 % w/w
Output form after stirring in solvent [3]: converted into Form A

Source: US9512095B2, “Polymorph forms of desazadesferrithiocin analogs” (Ferrokin Biosciences, Inc., priority 2013, dated 2016)
